From publication PMC11565046, “Rational design of 2H-chromene-based antiphytovirals that inhibit virion assembly by outcompeting virus capsid-RNA interactions” (iScience, 2024) come the findings set out here.

Where two headings read alike, the source gives them in different places.

Series [1] deals with PVY CP^wt (Potato virus Y, UniProt A0A650FPI8). The series is described as follows: MST assay for affinity with PVY CP^wt. The series is classed as binding. An excerpt: Microscale thermophoresis (MST) serves as a potent technique for quantifying the strength of interactions occurring between small molecules and their respective ligands.[19]^,[20] The binding strength between specific target drugs and PVY CP^wt was investigated in vitro using MST, as depicted in Figures 5G and S3. This experimental approach aimed to acquire insights into how target compounds exert their influences against PVY. […] Similarly, the affinity of target compounds for interacting with PVY CP^S125A was tested.
The PVY CP^wt gene, the wild-type variant of the Potato Virus Y coat protein, was cloned into the pET-32a (+) prokaryotic expression vector. This recombinant vector was then thermally transformed into BL21 (DE3) bacterial host cells for subsequent protein expression. The strains above were cultivated on a liquid Luria-Bertani medium (180 rpm, 37°C). To initiate the expression of PVY CP, isopropyl β-D-1-thiogalactopyranoside (IPTG) was added to the culture medium at a concentration of […] when the optical density at 600 nm (OD600) reached a range between 0.6 and 0.8. This step triggered the production of the PVY CP protein. The induction process was maintained for 10 h (180 rpm, 16°C). The 6 × -His-S-tagged PVY CP^wt were purified using nickel-nitriloacetic acid by high-performance column affinity chromatography. Subsequently, enterokinase was employed to digest the proteins, and the desired target proteins were isolated using His-tag purification resin. Ultimately, the proteins were identified through the employment of a 12% sodium dodecyl sulfate-polyacrylamide gel electrophoresis method. The pET-32a (+) plasmid containing the PVY CP^wt gene was used as a template. […] The mutant protein was purified using the method for the purification of PVY CP^wt, which was PVY CP^S125A.
The proteins' binding affinity with target chemicals was evaluated using a Monolith NT.115 instrument (Nano Temper, Munich, Germany), utilizing established methods described in literature.[35]^,[48] A concentration of 2.0 mM was selected for the chemicals, and the proteins were tagged with the Monolith TM RED-NHS second-generation labeling kit. The MST assay analyzed the fluorescence intensity of the labeled proteins, focusing on a range from 400 to 1200 to investigate their interactions. The scanning method was conducted using an “LED power” setting of 40% and a temperature that was maintained at 25.0°C.

Series [2] addresses T1, PVY CP^S125A (Potato virus Y, UniProt Q02963, S2919A).
T1 construct: 6xHis (N, cleaved yes); S-tag (N, cleaved yes); thioredoxin (Trx, from pET-32a); made in house; host or cells: E. coli BL21 (DE3)
T1 sequence (Q02963 2795-3061 S2919A): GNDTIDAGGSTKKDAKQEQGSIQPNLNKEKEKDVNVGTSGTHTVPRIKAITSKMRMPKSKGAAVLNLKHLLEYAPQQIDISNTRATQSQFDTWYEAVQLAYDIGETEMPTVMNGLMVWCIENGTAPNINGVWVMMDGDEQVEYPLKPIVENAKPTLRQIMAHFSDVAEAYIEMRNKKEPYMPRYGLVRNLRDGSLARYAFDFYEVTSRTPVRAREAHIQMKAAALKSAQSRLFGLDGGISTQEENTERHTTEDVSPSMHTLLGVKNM
Briefly: MST assay for affinity with mutant PVY CP^S125A. Conditions: 25.0°C, read-out: Kd for binding to PVY CP^S125A.

The subject of series [3] is PVY. The series is described as follows: Inactivating activity against PVY, half-leaf method on Chenopodium amaranticolor. Type of series: in vivo, potato virus Y. The settings on record: Potato virus Y, in Chenopodium amaranticolor. As to the method: (§1) According to previous reports,[46] PVY was infested in Nicotiana tabacum K326, and PVY was harvested and purified after showing severe infection symptoms on the leaves. The literature-guided protocol was followed to assess the curative, prophylactic, and […] potential of the target compounds under investigation.[15]
Target compound solution (1,000 μg/mL) and 2 × virus solution were combined in equal quantities and incubated for 30 min. Evenly distribute emery onto the leaf blades, and apply the mixture of virus and compound solution onto the right side of C. amaranticolor leaf blades. Following this, an identical quantity of a 1× virus solution was applied to the untreated side of the leaf. Following a duration of 1.5 h, the emery residue present on the leaf surface was removed using a rinsing process utilizing water. The plants were incubated within a controlled greenhouse environment, maintaining a consistent temperature of 25°C. After 5−7 days, they proceeded to statistics the number of necrotic spots on the leaves. For each chemical, triplicate experiments were undertaken, and the average percentage of inhibition was subsequently determined.

The subject of series [4] is PVY-GFP. Briefly: Systemic infection of PVY-GFP in Nicotiana benthamiana (UV fluorescence, RT-qPCR). The series is classed as in vivo, potato virus Y. The settings on record: 500 μg/mL spray, 7 dpai. The source says: To evaluate the effect of C50 on PVY infection, we infiltrated the Nicotiana benthamiana plants with Agrobacterium carrying the PVY infectious clone pCamPVY-GFP. […] The RT-qPCR results for GFP were consistent with that of PVY RNA (Figure 3D).
The Nicotiana benthamiana plants were subjected to infestation by Agrobacterium tumefaciens, which carried either pCamPVY-GFP or an empty vector (mock). […] At 7 dpai, the leaves of N. benthamiana were looked at for the GFP using a LUYOR UV light (Shanghai, China), and captured in photographs. The foliage was gathered, rapidly frozen with liquid nitrogen, and subsequently preserved in a refrigerator set at a temperature of −80°C.
Leaf blades of Nicotiana benthamiana were pulverized into fine powder with the aid of liquid nitrogen, followed by the extraction of total RNA from the leaf tissue utilizing Trizol reagent (Invitrogen, California, USA). Subsequently, cDNA synthesis was conducted through reverse transcription with primers and a reverse transcription kit (Vazyme, Nanjing, China). Any potential DNA contamination was effectively removed using a gDNA wipe enzyme (Vazyme, Nanjing, China) as per the manufacturer’s guidelines. RT-qPCR analysis was carried out employing TB Green (TaKaRa, Beijing, China). Detailed information regarding the primers utilized in this investigation can be found in Table S2.
A general note: In qPCR the cycle at which signal appears reflects the starting amount.

In series [5] the test system is PVY. Briefly: Protective activity against PVY, half-leaf method on Chenopodium amaranticolor. Type of series: in vivo. The settings on record: Potato virus Y, in Chenopodium amaranticolor; 500 μg/mL; Chenopodium amaranticolor leaves; average of three replicates. As to the method: as §1
A 500 μg/mL solution of the targeted compound was delicately applied to one side of C. amaranticolor leaves, while the other side was treated with a 1% Tween 80 aqueous solution. The plants were positioned in a greenhouse set at 25°C. Following a 24 h period, the entire leaf surface was inoculated with PVY by uniformly distributing 200–300 mesh emery. After 1.5 h, the emery was washed off with water, and the plants were returned to the greenhouse. After 5–7 days, the number of necrotic spots was tallied, with the assessment based on the greenhouse population. Each compound was tested in triplicate, and the average inhibition rate was subsequently calculated.

The subject of series [6] is PVY. The series is described as follows: Curative activity against PVY, half-leaf method on Chenopodium amaranticolor. Type of series: in vivo. The settings on record: Potato virus Y, in Chenopodium amaranticolor; 500 μg/mL; Chenopodium amaranticolor leaves; average of three replicates.
Text: as §1
To assess the curative effectiveness against PVY, a uniform layer of 200–300 mesh emery was applied to the leaves of C. amaranticolor, followed by rubbing with a virus solution. For 1.5 h, then the emery was washed off with water. After the leaves naturally dried, a 500 μg/mL solution of the test compound was carefully applied to one side of the leaf, while the opposite side received a 1% Tween 80 solution as a control. The plants were subsequently incubated in a greenhouse maintained at 25°C. After 5−7 days, the presence of necrotic spots on the leaves was recorded, with each compound tested on three replicate plants. The average inhibition rate was determined by analyzing the data from these replications.

The mark [7] stands for this setting: Chenopodium amaranticolor leaves, read-out: EC50 for inactivating activity.
Where [8] appears, read: inactivating activity, Table S1, read-out: Experimental pEC50 (converted).

Regarding `CC1(C)C=Cc2c(ccc(/C=N/c3ccc(NS(=O)(=O)c4ccc(Cl)cc4)cc3)c2O)O1` [Compound C6, (E)-4-chloro-N-(4-(((5-hydroxy-2,2-dimethyl-2H-chromen-6-yl)methylene)amino)phenyl) benzenesulfonamide], the melting point (commonly the temperature, or range, at which the solid turns liquid) was in the range of 139 to 141 °C. The dissociation constant (Kd) (in general, the equilibrium constant for the complex coming apart) in series [1] amounted to 4.4 µM. The Kd in series [2] came to 312 ± 40.3 µM. In series [3] (setting [7]), the EC50 was found to be 56.7 ± 4.2 µg/mL. Besides, in series [3] (setting [8]), the EC50 is 121 µM.

For `Cc1ccc(S(=O)(=O)Nc2ccc(/N=C/c3ccc4c(c3O)C=CC(C)(C)O4)cc2)cc1` [Compound C50], the melting point was 127 to 129 °C. The “Green fluorescence under UV light” value in series [4] (N. benthamiana, versus DMSO control) was “noteworthy decrease in green fluorescence”. Also, the “PVY RNA accumulation level (control normalized as 100%)” value in series [4] (systemic leaves of N. benthamiana, RT-qPCR) came out at 18.9%. Moreover, the inhibition (commonly the change of the read-out against control, counted positive when it falls) at 500 µg/mL in series [5] is 60 to 70%. Besides, the Kd in series [1] turned out to be 1.6 µM. The same compound came in with an inhibition at 500 µg/mL in series [6] of 60 to 70%. In series [2], the dissociation constant Kd worked out at 125 µM. The EC50 in series [3] (setting [7]) came to 53.3 ± 4.3 µg/mL. The EC50 in series [3] (setting [8]) is 119 µM.
